Several values for one entry are separate records, joined by “and”; a condition that tells them apart may be missing. Identical values can stand only once. Entries after “also recorded” stand apart in the source; their conditions may differ.
Key:
[1] = system: cultured rat forebrain neurons; experiment: Survival assay of neuronal cultures (Alamar Blue reduction, 24 hr); conditions: for Cell (neuronal) survival: ONOO− 100 μM alone, without PQQ; for Effect on neurotoxicity induced by NMDA plus DETA/NO: PBN at 10 mM, TEMPO at 1 mM applied 1 hr before; for Synergism with NMDA in producing neurotoxicity: DEA/NO 100 μM, DPT/NO 300 μM
Procedure: Neuronal cultures were prepared from embryonic day 16 Sprague Dawley rat fetuses using methods similar to those previously described (Dichter, 1978) but modified to produce cultures that contained <1% astrocytes (Rosenberg and Aizenman, 1989; Rosenberg, 1991; Rosenberg et al., 1992; Wang et al., 1998). Cultures were initially plated on poly-L-lysine-coated 24-well plastic plates (Costar, Cambridge, Mass.) using an 80:10:10 (v/v) mixture ofDMEM (Life Technologies 11960-010), Ham's F-12 (Sigma, N-4888), heat-inactivated iron-supplemented calf serum (Hyclone A2151), containing 2 mM glutamine, 25 mM HEPES, 24 U/ml penicillin, and 24 μg/ml streptomycin and maintained in a 5% CO2 (balance air) incubator at 36° C. Cell proliferation was inhibited by exposure to 5 μM cytosine arabinoside at 24 hr in vitro for 72 hr. On the fourth day of culture, the medium was completely removed and replaced with 90% MEM, 10% Nuserum IV (Collaborative Research), 2 mM glutamine, 5 mM HEPES, containing 50 units/ml superoxide dismutase (Boehringer Mannheim, Indianapolis, Ind.), 20 units/ml catalase (Sigma CV-40), total glucose 11 mM, and total sodium bicarbonate 9.3 mM, plus 2% B27 supplement (Life Technologies 17504-036). Medium was not subsequently changed. To prevent evaporation of water, culture dishes were kept in wet dishes containing filter paper that was always kept wet.
In all experiments, 24-well plates were first washed three times in Hank's balanced salt solution (HBSS) containing 0.1% bovine serum albumin (BSA), and then they were placed in Earle's balanced salt solution (EBSS, which is composed of 116 mM NaCl, 5.4 mM KCl, 1.8 mM CaCl2, 0.8 mM MgSO4, 26 mM NaHCO3, 1 mM NaH2PO4 and 5.5 mM D-glucose). Experiments were carried out exclusively in EBSS. […] PQQ was directly dissolved in EBSS.
Survival of cells was determined after 24 hr exposure to the test compounds by assessing the ability of cultures to reduce Alamar Blue (Trek Diagnostic Systems, Inc., Westlake, Ohio) as an index of viability (McGahon et al., 1995). Details of this procedure have been provided elsewhere (Back et al., 1998, 1999). In brief, the test medium was removed after 24 hr, and then replaced with EBSS plus a 1:100 dilution of Alamar Blue. After 2 hr exposure, the medium was diluted 50-fold with water, and the fluorescence intensity was determined in a Hitachi fluorescence spectrophotometer using an excitation wavelength of 530 nm and an emission wavelength of 590 nm. The photomultiplier voltage was set at 700 V. In some experiments, the cell viability determined by Alamar Blue was compared to that determined by the assay of lactate dehydrogenase (LDH) release (Koh and Choi, 1987).

[2] = system: cultured rat forebrain neurons; experiment: Assay of intracellular ATP in neuronal cultures (firefly luciferase); format: cell-based
Procedure: (§1) Medium was not subsequently changed.
Experiments were carried out exclusively in EBSS. […] PQQ was directly dissolved in EBSS.
The Bioluminescent Somatic Cell Assay kit from Sigma (catalog No. FL-ASC) was used for assay of ATP as previously described (Rosenberg et al., 2000). At selected time points after addition of drug or vehicle, medium was removed, and then replaced with 200 μl of cell lysis agent. After brief agitation, the medium was transferred to microcentrifuge tubes that contained 200 μl of water. The tubes were placed on wet ice until assay. ATP assay mix was used at 25-fold dilution, and 100 μl of the extract was assayed.

[3] = system: cultured rat forebrain neurons; experiment: Measurement of intracellular cGMP in neuronal cultures (enzyme-linked immunoassay); format: cell-based
Procedure: as §1
Intracellular cGMP was assayed by enzyme-linked immunoassay (Amersham). Cultures were washed three times, and then medium was replaced by EBSS with or without PQQ or SOD. The non-specific phosphodiesterase inhibitor, 3-isobutyl-1-methylxanthine (IBMX) at 100 μM was present in all conditions. DEA/NO, SIN-1 and peroxynitrite were added for 5 min, and then the medium was replaced with 200 μl of releasing reagent provided in the kit. The plates were agitated for 20 min at room temperature, and 20 μl of acetylation reagent was added. After 5 min, 50 μl samples were taken for assay.

G93A-SOD transgenic mice = conditions: cited from earlier work
BSA = experiment: Western blot of BSA tyrosine nitration, cell-free (anti-nitrotyrosine antibody); format: biochemical, bovine; conditions: SIN-1 1 mM alone
Procedure: BSA (0.5 mg/ml) in EBSS with or without PQQ was exposed to SIN-1 or peroxynitrite for 1 hr, and then 4× sample buffer (40% glycerol, 20% β-mercaptoethanol, 0.004% bromophenol blue, 6.4% SDS, 25% 1M Tris-HCl, pH 6.8) was added. After the samples were heated for 5 min, 2 μg protein per lane was subjected to SDS-PAGE analysis, followed by transfer to PVDF membrane (NEN Life Science, Boston, Mass.) and reacted with a mouse anti-nitrotyrosine monoclonal antibody (Upstate Biotechnology). Proteins were visualized with horseradish peroxidase-conjugated sheep anti-mouse immunoglobulin G (IgG) followed by detection with enhanced chemiluminescence.

Oligodendrocytes = experiment: In vitro white matter injury assay: SIN-1 toxicity in oligodendrocytes; format: cell-based; conditions: 2 hr exposure in EBSS; examined at 24 hr
Procedure: Oligodendrocytes were exposed to various concentrations of SIN-1 (0, 0.25, 0.5, 1 and 2 mM) in EBSS for 2 hr with or without PQQ (100 μM), then washed with HBSS containing 0.1% BSA for 2 times. Oligodendrocytes were then returned to the culture medium. The neurotoxicity was examined at 24 hr.
To illustrate the neuroprotective benefits of the invention, PQQ was used to show oligodendrocytes protection from cell toxicity in an in vitro white matter injury assay. Oligodendrocytes were exposed to various concentrations of SIN-1 (0, 0.25, 0.5, 1 and 2 mM) in EBSS for 2 hr with or without PQQ (100 μM), then washed with HBSS containing 0.1% BSA for 2 times. Oligodendrocytes were then returned to the culture medium. The neurotoxicity was examined at 24 hr.

[4] = five minutes, agent alone: SIN-1 100 μM, ONOO− 100 μM or DEA/NO 10 μM, IBMX 100 μM
[5] = nitric oxide donor 1 mM alone (FIG. 6B)
[6] = nitric oxide donor 1 mM without MK-801 (FIG. 5A)
[7] = one hour after nitric oxide donor 1 mM alone

Q: For `O=C(O)c1ccc(C2=C3C=CC(=N3)C(c3ccc(C(=O)O)cc3)=c3ccc([nH]3)=C(c3ccc(C(=O)O)cc3)c3ccc([n-]3)C(c3ccc(C(=O)O)cc3)c3ccc2[n-]3)cc1.[Cl-].[Mn+3]` (centres unmarked) [MnTBAP, Mn (III) tetrakis (4-benzoic acid) porphyrin chloride], which “Effect on SIN-1 toxicity” value ([1]; MnTBAP 100 μM, SIN-1 1 mM) is on record?
A: completely protected

Q: And the “Effect on neurotoxicity induced by SIN-1” value ([1]; MnTBAP (TBAP), SIN-1 1 mM)?
A: completely blocks

Q: And the “Effect on ONOO− (peroxynitrite) toxicity” value ([1]; MnTBAP, ONOO− 100 μM)?
A: blocked; also recorded: fully protected

Q: With `O=NOO` [ONOO^−, peroxynitrite] as the molecule, how does the “Cell (neuronal) survival” value [1] read?
A: 52.4±0.4%

Q: And the “Cell (neuronal) survival” value ([1]; listed as peroxynitrite)?
A: 49±7.3%

Q: And the “Intracellular ATP” value ([2]; of control values, 1 hr ONOO− 100 μM alone)?
A: 37±9.9%

Q: And the “Intracellular ATP” value ([2]; of control values, 1 hr ONOO− 100 μM alone, listed as peroxynitrite)?
A: 40.5±11%

Q: What about the “ATP level after 5 min exposure” value ([2]; peroxynitrite 100 μM, 5 min) of the same molecule?
A: 50 % of its original levels

Q: And the “Intracellular cGMP content” value [3, 4]?
A: 111±11.2 % of control and 97±14.4 % of control

Q: What about the “Intracellular cGMP content” value ([3]; five minutes, agent alone: SIN-1 100 μM, ONOO− 100 μM or DEA/NO 10 μM, IBMX 100 μM, listed as peroxynitrite) of the same molecule?
A: 95.6±4.3 % of control

Q: For `CN[C@H](CC(=O)O)C(=O)O` [NMDA], which “Toxicity to neurons, applied alone” value ([1]; 24 h exposure, NMDA 20 μM or DETA/NO 300 μM) is on record?
A: does not produce toxicity

Q: With `[Cl-].[Mn+3].[O-]c1ccccc1C=NCCN=Cc1ccccc1[O-]` [EUK-8] as the molecule, how does the “Effect on protein tyrosine nitration” value (G93A-SOD transgenic mice) read?
A: reduced protein tyrosine nitration

Q: And the “Effect on survival of transgenic animals” value (G93A-SOD transgenic mice)?
A: prolonged survival

Q: Which “Synergistic effect with kainate in producing neurotoxicity” value ([1]; DETA/NO 300 μM with kainate 20 μM) does the source give for `NCCN(CCN)/[N+]([O-])=N/O` [DETA/NO, diethylaminetriamine NONOate] here?
A: synergistic effect

Q: What about the Neuronal survival [1, 5] of the same molecule?
A: 25.2±10.6 % of control

Q: What about the Neuronal survival [1, 6] of the same molecule?
A: 27.9±8.0%

Q: With `N=c1c[n+](N2CCOCC2)[n-]o1` [SIN-1, 3-morpholinosydnonimine] as the molecule, how does the “Exposure time to maximal ATP depletion” value ([2]; SIN-1 1 mM) read?
A: 1 h

Q: And the “Intracellular ATP” value ([2]; of control values, 1 hr exposure to SIN-1 1 mM alone)?
A: 43±15.6% and 43.3±18.7%

Q: What about the “Nitration of BSA” value (BSA) of the same molecule?
A: strong nitration

Q: What about the EC50 (Oligodendrocytes) of the same molecule?
A: 345 ± 91 µM

Q: And the “Intracellular cGMP content” value [3, 4]?
A: 192±10.7 % of control and 207.6±11.5 % of control and 220.5±39.4 % of control

Q: What does the source list for `CC(C)(C)[N+]([O-])=Cc1ccccc1` [PBN, alpha-phenyl-N-tert butyl nitrone]?
A: Effect on neurotoxicity induced by NMDA plus DETA/NO ([1]; 24 hr exposure): not demonstrably neuroprotective; also recorded: no demonstrable effect; Effect on neurotoxicity induced by NMDA plus DETA/NO ([1]; four hour exposure): complete neuroprotection; also recorded: block

Q: With `CC1(C)CCCC(C)(C)N1[O]` [TEMPO, 2,2,6,6-tetramethyl-1-piperidinyl-1-oxyl] as the molecule, how does the “Effect on neurotoxicity induced by NMDA plus DETA/NO” value ([1]; 24 hr exposure) read?
A: not demonstrably neuroprotective; also recorded: no demonstrable effect

Q: What about the “Effect on neurotoxicity induced by NMDA plus DETA/NO” value ([1]; four hour exposure) of the same molecule?
A: complete neuroprotection; also recorded: block

Q: With `NCCCN(CCCN)/[N+]([O-])=N/O` [DPT/NO, dipropylenetriamine NONOate] as the molecule, how does the “Synergism with NMDA in producing neurotoxicity” value [1] read?
A: synergism

Q: And the Neuronal survival [1, 5]?
A: 1.9±0.8 % of control

Q: What about the Neuronal survival [1, 6] of the same molecule?
A: 6.5±5.3%

Q: And the “Intracellular ATP” value [2, 7]?
A: 62.6±4.5 % of control and 64.9±13.7 % of control

Q: What does the source list for SOD: bovine superoxide dismutase?
A: Effect on SIN-1 toxicity to neurons ([1]; SOD 100 U/ml co-applied with SIN-1 500 μM, no catalase): potentiated; Effect on SIN-1 toxicity ([1]; SOD 100 U/ml together with catalase (CAT) 100 U/ml, SIN-1 1 mM, 24 hr): completely blocked; also recorded: fully prevented; Neuronal survival ([1]; co-application of SOD 100 U/ml and SIN-1 500 μM): 16.8±6.3 % of control and 11.6±1.2 % of control; Intracellular cGMP content ([3]; DEA/NO 10 μM in the presence of SOD 100 U/ml): 310.3±33.4 % of control; Intracellular cGMP content ([3]; ONOO− 100 μM in the presence of SOD 100 U/ml): 131±6 % of control; Intracellular cGMP content ([3]; SIN-1 100 μM in the presence of SOD 100 U/ml): 327.7±39.5 % of control; Effect on cGMP accumulation induced by SIN-1 ([3]; SOD 100 U/ml, SIN-1 100 μM): effect similar to that of PQQ; also recorded: enhanced

Q: For `COc1cccc(C=NCCN=Cc2cccc(OC)c2[O-])c1[O-].[Cl-].[Mn+3]` [EUK-134], which “Effect on protein tyrosine nitration” value (G93A-SOD transgenic mice) is on record?
A: reduced protein tyrosine nitration

Q: And the “Effect on survival of transgenic animals” value (G93A-SOD transgenic mice)?
A: prolonged survival

Q: Which “Neurotoxicity to neurons in culture” value ([1]; 1 mM, in three out of six experiments) does the source give for `CCN(CC)/[N+]([O-])=N/O.CCNCC` [DEA/NO, diethylamine NONOate] here?
A: did not cause any toxicity

Q: What about the “Synergism with NMDA in producing neurotoxicity” value [1] of the same molecule?
A: synergism

Q: And the Neuronal survival [1, 5]?
A: 48.7±14.6 % of control

Q: What about the Neuronal survival [1, 6] of the same molecule?
A: 18.2±5.3%

Q: What about the “Intracellular ATP” value [2, 7] of the same molecule?
A: 51.6±5.8 % of control and 50.8±20.9 % of control

Q: And the “Intracellular cGMP content” value [3, 4]?
A: 250±15.5 % of control and 215±32.2 % of control and 318.5±31 % of control

Source: patent publication US20030229114A1, “Pyrroloquinoline quinone drugs as a neuroprotectant and methods of use thereof” (priority 2002, published 2003)
